Data published in ChEMBL document CHEMBL4831541, “Antibiotic Conjugates with an Artificial MECAM-Based Siderophore Are Potent Agents against Gram-Positive and Gram-Negative Bacterial Pathogens” (2021).
In brackets after ≈: the same amount, converted by molar mass. Activity calls are given as the source filed them. The rule behind the calls is not given here.

What was measured:
Escherichia coli [1] = assay: Recovery of growth in Escherichia coli BW25113 delta entA assessed as reversal of growth at 10 uM in presence of 0.1 uM iron(III) chloride hexahydrate by growth recovery assay; assay type: functional, organism-based
Acinetobacter baumannii = assay: Antibacterial activity against Acinetobacter baumannii DSM30007 assessed as growth inhibition by measuring minimal concentration at OD600 by visual inspection with iron-limited media incubated for 24 hrs; assay type: functional
Enterococcus faecium = assay: Antibacterial activity against Enterococcus faecium DSM20477 assessed as growth inhibition by measuring minimal concentration at OD600 by visual inspection with iron-limited media incubated for 24 hrs; assay type: functional
Escherichia coli [2] = assay: Antibacterial activity against Escherichia coli BW25113 assessed as growth inhibition by measuring minimal concentration at OD600 by visual inspection with iron-limited media incubated for 24 hrs; assay type: functional
Staphylococcus aureus = assay: Antibacterial activity against Staphylococcus aureus DSM11822 assessed as growth inhibition by measuring minimal concentration at OD600 by visual inspection with iron-limited media incubated for 24 hrs; assay type: functional
[3] = Metal chelating activity assessed as Fe3+-compound complex formation measured after 17 hrs by chrome azurol S dye based colorimetric assay
Escherichia coli [4] = assay: Drug uptake in Escherichia coli BW25113 delta entA assessed in peri-plasmic fraction pre-treated at 10 uM in presence of 0.1 uM iron(III) chloride hexahydrate by mass spectrometry based cell fractionation assay; assay type: functional, organism-based
Escherichia coli [5] = assay: Drug uptake in Escherichia coli BW25113 delta entA assessed in cytoplasmic fraction pre-treated at 10 uM in presence of 0.1 uM iron(III) chloride hexahydrate by mass spectrometry based cell fractionation assay; assay type: functional, organism-based
Escherichia coli [6] = assay: Drug uptake in Escherichia coli BW25113 delta entA assessed in membrane fraction pre-treated at 10 uM in presence of 0.1 uM iron(III) chloride hexahydrate by mass spectrometry based cell fractionation assay; assay type: functional, organism-based
Klebsiella pneumoniae = assay: Antibacterial activity against Klebsiella pneumoniae DSM11678 assessed as growth inhibition by measuring minimal concentration at OD600 by visual inspection with iron-limited media incubated for 24 hrs; assay type: functional, organism-based
Pseudomonas aeruginosa = assay: Antibacterial activity against Pseudomonas aeruginosa DSM24068 assessed as growth inhibition by measuring minimal concentration at OD600 by visual inspection with iron-limited media incubated for 24 hrs; assay type: functional, organism-based
Escherichia coli [7] = assay: Antibacterial activity against Escherichia coli delta […] delta fiu assessed as growth inhibition by measuring minimal concentration at OD600 by visual inspection with iron-limited media incubated for 24 hrs; assay type: functional
Escherichia coli [8] = assay: Antibacterial activity against Escherichia coli delta fepB assessed as growth inhibition by measuring minimal concentration at OD600 by visual inspection with iron-limited media incubated for 24 hrs; assay type: functional
Escherichia coli [9] = assay: Antibacterial activity against Escherichia coli delta fepA assessed as growth inhibition by measuring minimal concentration at OD600 by visual inspection with iron-limited media incubated for 24 hrs; assay type: functional
Escherichia coli [10] = assay: Antibacterial activity against Escherichia coli delta fepD assessed as growth inhibition by measuring minimal concentration at OD600 by visual inspection with iron-limited media incubated for 24 hrs; assay type: functional
Escherichia coli [11] = assay: Antibacterial activity against Escherichia coli delta cirA assessed as growth inhibition by measuring minimal concentration at OD600 by visual inspection with iron-limited media incubated for 24 hrs; assay type: functional
Escherichia coli [12] = assay: Antibacterial activity against Escherichia coli delta exbB assessed as growth inhibition by measuring minimal concentration at OD600 by visual inspection with iron-limited media incubated for 24 hrs; assay type: functional
Escherichia coli [13] = assay: Antibacterial activity against Escherichia coli delta tonB assessed as growth inhibition by measuring minimal concentration at OD600 by visual inspection with iron-limited media incubated for 24 hrs; assay type: functional
Escherichia coli [14] = assay: Antibacterial activity against Escherichia coli delta cirA delta fiu assessed as growth inhibition by measuring minimal concentration at OD600 by visual inspection with iron-limited media incubated for 24 hrs; assay type: functional
Escherichia coli [15] = assay: Antibacterial activity against Escherichia coli delta fepA delta cirA delta fiu assessed as growth inhibition by measuring minimal concentration at OD600 by visual inspection with iron-limited media incubated for 24 hrs; assay type: functional
Escherichia coli [16] = assay: Antibacterial activity against wild type Escherichia coli BW25113 assessed as growth inhibition by measuring minimal concentration at OD600 by visual inspection with iron-limited media incubated for 24 hrs; assay type: functional
Escherichia coli [17] = assay: Antibacterial activity against Escherichia coli delta fiu assessed as growth inhibition by measuring minimal concentration at OD600 by visual inspection with iron-limited media incubated for 24 hrs; assay type: functional
Escherichia coli [18] = assay: Antibacterial activity against Escherichia coli delta fepA delta cirA assessed as growth inhibition by measuring minimal concentration at OD600 by visual inspection with iron-limited media incubated for 24 hrs; assay type: functional
Escherichia coli [19] = assay: Recovery of growth in Escherichia coli BW25113 delta entA delta fepA double knock out assessed as reversal of growth at 10 uM in presence of 0.1 uM iron(III) chloride hexahydrate by growth recovery assay; assay type: functional, organism-based
Escherichia coli [20] = assay: Recovery of growth in Escherichia coli BW25113 delta entA delta fepA double knock out assessed as reversal of growth at 10 uM in presence of 0.1 uM iron(III) chloride hexahydrate measured after reintroduction of plasmid expressing full length FepA by growth recovery assay; assay type: functional, organism-based

SMILES	Activity (Escherichia coli [1])	MIC (Acinetobacter baumannii)	MIC (Enterococcus faecium)	MIC (Escherichia coli [2])	MIC (Staphylococcus aureus)	Activity (Klebsiella pneumoniae)	Activity (Pseudomonas aeruginosa)	other results
O=C(NCc1cc(CNC(=O)c2cccc(O)c2O)cc(CNC(=O)c2cccc(O)c2O)c1)c1cccc(O)c1O	Active	–	–	–	–	–	–	–
CCCCCCCCCC(=O)N[C@@H](Cc1c[nH]c2ccccc12)C(=O)N[C@H](CC(N)=O)C(=O)N[C@@H](CC(=O)O)C(=O)N[C@@H]1C(=O)NCC(=O)N[C@@H](CCCN)C(=O)N[C@@H](CC(=O)O)C(=O)N[C@H](C)C(=O)N[C@@H](CC(=O)O)C(=O)NCC(=O)N[C@H](CO)C(=O)N[C@@H]([C@H](C)CC(=O)O)C(=O)N[C@@H](CC(=O)c2ccccc2N)C(=O)O[C@@H]1C	–	> 39 µM	0.62 µM (≈ 1 µg/mL)	> 64 µM	0.36 µM (≈ 0.583 µg/mL)	–	–	–
O=C(NCc1cc(CNC(=O)c2cccc(O)c2O)c([N+](=O)[O-])c(CNC(=O)c2cccc(O)c2O)c1)c1cccc(O)c1O	Active	–	–	–	–	–	–	Activity [3]: Active; Drug uptake (Escherichia coli [4]): Active; Drug uptake (Escherichia coli [5]): inactive; Drug uptake (Escherichia coli [6]): Active
CC1(C)S[C@@H]2[C@H](NC(=O)[C@H](NC(=O)CCn3cc(CCCC(=O)Nc4c(CNC(=O)c5cccc(O)c5O)cc(CNC(=O)c5cccc(O)c5O)cc4CNC(=O)c4cccc(O)c4O)nn3)c3ccccc3)C(=O)N2[C@H]1C(=O)O	–	> 57 µM	> 57 µM	0.89 µM (≈ 1 µg/mL)	5.3 µM (≈ 5.98 µg/mL)	inactive	inactive	–
CC1(C)S[C@@H]2[C@H](NC(=O)[C@H](N)c3ccc(O)cc3)C(=O)N2[C@H]1C(=O)O [AMOXICILLIN]	–	> 175 µM	1.3 µM (≈ 0.475 µg/mL)	18 µM (≈ 6.58 µg/mL)	> 175 µM	–	–	–
CC1(C)S[C@@H]2[C@H](NC(=O)[C@H](N)c3ccccc3)C(=O)N2[C@H]1C(=O)O [AMPICILLIN]	–	> 183 µM	2.7 µM (≈ 0.943 µg/mL)	19 µM (≈ 6.64 µg/mL)	> 183 µM	–	–	MIC (Escherichia coli [7]): 46 µM (≈ 16.1 µg/mL); MIC (Escherichia coli [8]): 46 µM (≈ 16.1 µg/mL); MIC (Escherichia coli [9]): 46 µM (≈ 16.1 µg/mL); MIC (Escherichia coli [10]): 46 µM (≈ 16.1 µg/mL); MIC (Escherichia coli [11]): 46 µM (≈ 16.1 µg/mL); MIC (Escherichia coli [12]): 46 µM (≈ 16.1 µg/mL); MIC (Escherichia coli [13]): 46 µM (≈ 16.1 µg/mL); MIC (Escherichia coli [14]): 46 µM (≈ 16.1 µg/mL); MIC (Escherichia coli [15]): 46 µM (≈ 16.1 µg/mL); MIC (Escherichia coli [16]): 46 µM (≈ 16.1 µg/mL); MIC (Escherichia coli [17]): 46 µM (≈ 16.1 µg/mL); MIC (Escherichia coli [18]): 46 µM (≈ 16.1 µg/mL)
CCCCCCCCCC(=O)N[C@@H](Cc1c[nH]c2ccccc12)C(=O)N[C@H](CC(N)=O)C(=O)N[C@@H](CC(=O)O)C(=O)N[C@@H]1C(=O)NCC(=O)N[C@@H](CCCNC(=O)CCCCCn2cc(CCCC(=O)Nc3c(CNC(=O)c4cccc(O)c4O)cc(CNC(=O)c4cccc(O)c4O)cc3CNC(=O)c3cccc(O)c3O)nn2)C(=O)N[C@@H](CC(=O)O)C(=O)N[C@H](C)C(=O)N[C@@H](CC(=O)O)C(=O)NCC(=O)N[C@H](CO)C(=O)N[C@@H]([C@@H](C)CC(=O)O)C(=O)N[C@@H](CC(=O)c2ccccc2N)C(=O)O[C@@H]1C	–	4.4 µM (≈ 10.7 µg/mL)	13 µM (≈ 31.8 µg/mL)	> 64 µM	8.7 µM (≈ 21.3 µg/mL)	inactive	inactive	–
CC(=O)Oc1cccc(C(=O)NCc2cc(CNC(=O)c3cccc(OC(C)=O)c3OC(C)=O)c([N+](=O)[O-])c(CNC(=O)c3cccc(OC(C)=O)c3OC(C)=O)c2)c1OC(C)=O	Active	–	–	–	–	–	–	Activity (Escherichia coli [19]): inactive; Activity (Escherichia coli [20]): Active
CC(C)(O/N=C(\C(=O)N[C@@H]1C(=O)N2C(C(=O)[O-])=C(C[N+]3(CCNC(=O)c4ccc(O)c(O)c4Cl)CCCC3)CS[C@H]12)c1csc(N)n1)C(=O)O [CEFIDEROCOL]	–	0.053 µM (≈ 0.0399 µg/mL)	> 85 µM	0.042 µM (≈ 0.0316 µg/mL)	> 85 µM	–	–	MIC (Escherichia coli [7]): 0.66 µM (≈ 0.496 µg/mL); MIC (Escherichia coli [8]): 0.083 µM (≈ 0.0624 µg/mL); MIC (Escherichia coli [9]): 0.17 µM (≈ 0.128 µg/mL); MIC (Escherichia coli [10]): 0.083 µM (≈ 0.0624 µg/mL); MIC (Escherichia coli [11]): 0.66 µM (≈ 0.496 µg/mL); MIC (Escherichia coli [12]): 5.3 µM (≈ 3.99 µg/mL); MIC (Escherichia coli [13]): > 21 µM; MIC (Escherichia coli [14]): 21 µM (≈ 15.8 µg/mL); MIC (Escherichia coli [15]): > 21 µM; MIC (Escherichia coli [16]): 33 µM (≈ 24.8 µg/mL); MIC (Escherichia coli [17]): 0.66 µM (≈ 0.496 µg/mL); MIC (Escherichia coli [18]): 0.17 µM (≈ 0.128 µg/mL)
CC(=O)Oc1cccc(C(=O)NCCc2cc(CCNC(=O)c3cccc(OC(C)=O)c3OC(C)=O)c([N+](=O)[O-])c(CCNC(=O)c3cccc(OC(C)=O)c3OC(C)=O)c2)c1OC(C)=O	Active	–	–	–	–	–	–	–
CC(=O)Oc1cccc(C(=O)NCc2cc(CNC(=O)c3cccc(OC(C)=O)c3OC(C)=O)c(NC(=O)CCOCCOCCOCCOCc3cn(CCC(=O)N[C@@H](C(=O)N[C@@H]4C(=O)N5[C@@H]4SC(C)(C)[C@@H]5C(=O)O)c4ccccc4)nn3)c(CNC(=O)c3cccc(OC(C)=O)c3OC(C)=O)c2)c1OC(C)=O	–	64 µM (≈ 97.9 µg/mL)	> 64 µM	0.81 µM (≈ 1.24 µg/mL)	> 64 µM	inactive	inactive	–
CC1(C)S[C@@H]2[C@H](NC(=O)[C@H](NC(=O)CCn3cc(CCCC(=O)Nc4c(CNC(=O)c5cccc(O)c5O)cc(CNC(=O)c5cccc(O)c5O)cc4CNC(=O)c4cccc(O)c4O)nn3)c3ccc(O)cc3)C(=O)N2[C@H]1C(=O)O	–	56 µM (≈ 64.1 µg/mL)	> 56 µM	0.87 µM (≈ 0.996 µg/mL)	> 56 µM	inactive	inactive	–
CC(=O)Oc1cccc(C(=O)NCc2cc(CNC(=O)c3cccc(OC(C)=O)c3OC(C)=O)c(CNC(=O)c3cccc(OC(C)=O)c3OC(C)=O)c([N+](=O)[O-])c2)c1OC(C)=O	Active	–	–	–	–	–	–	–
CC(=O)Oc1cccc(C(=O)NCc2cc(CNC(=O)c3cccc(OC(C)=O)c3OC(C)=O)c(NC(=O)CCCc3cn(CCC(=O)N[C@@H](C(=O)N[C@@H]4C(=O)N5[C@@H]4SC(C)(C)[C@@H]5C(=O)O)c4ccc(O)cc4)nn3)c(CNC(=O)c3cccc(OC(C)=O)c3OC(C)=O)c2)c1OC(C)=O	–	46 µM (≈ 64.3 µg/mL)	> 46 µM	1.4 µM (≈ 1.96 µg/mL)	> 46 µM	inactive	inactive	–
CC(=O)Oc1cccc(C(=O)NCc2cc(CNC(=O)c3cccc(OC(C)=O)c3OC(C)=O)cc(CNC(=O)c3cccc(OC(C)=O)c3OC(C)=O)c2)c1OC(C)=O	Active	–	–	–	–	–	–	–
